How the values were obtained:
Test in all cases: Cryopreservation success rate after dormancy induction in sugar-supplemented medium
L. minor [1] = format: in vivo, Lemna minor; conditions: sugars at two concentrations: 90 mg/ml (1X) and 270 mg/ml (3X)
IFN61-B2-101 line = format: in vivo, Lemna minor; conditions: sugars at two concentrations: 90 mg/ml (1X) and 270 mg/ml (3X)
Protocol: (§1) Lemna minor duckweed plants were cultured on Schenk and Hildebrandt media with 20 mg/ml sucrose at an aerial temperature of between 21° C. and 30° C. and light levels ranging from 200 μM·M^−2·sec^−1 to 450 μM·M^−2·sec^−1 for 1 day up to 1 year. Three frond colonies (each frond colony comprised one or more daughter fronds attached to the mother frond) were aseptically transferred into a 2.0-mL cryovial containing a 900 μL solution of Schenk and Hildebrandt media, […] step. The frond colonies were incubated in this sugar solution for 21-30 days. Each 24-hour photoperiod was comprised of fluctuations in temperature and light levels. Specifically, the daytime hours consisted of culturing the duckweed frond colony at an aerial temperature of 10° C. with a light level of about 25 μM·M^−2·sec^−1 to about 50 μM·M^−2·sec^−1 for a duration of 3 hours, followed by an aerial temperature of 15° C. at a light level of about 25 μM·M^−2·sec^−1 to about 75 μM·M^−2·sec^−1 for a duration of 6 hours, and an aerial temperature of 10° C. with a light level of about 25 μM^−2·sec^−1 to about 50 μM·M^−2·sec^−1 for a duration of 3 hours. During the nighttime hours of the 24-hour photoperiod, the duckweed frond colonies were cultured at an aerial temperature of 4° C. in the absence of light for a duration of 12 hours.
(§2) The duckweed frond colonies were dehydrated in a laminar flow hood in 900 μL of a cryoprotective solution, comprising 1.92 M DMSO, […], 3.26 M glycerol, and 0.4 M sucrose at pH 5.8. The cryovials were incubated in this solution at 4° C. for 30 minutes to 2 hours in the absence of light. Following the incubation, the cryoprotective solution was removed and replaced with 900 μL of fresh cryoprotective solution.
(§3) The duckweed frond colonies were frozen in a slow rate freezer according to the following freezing protocol. The cryovials containing the duckweed frond colonies were held at 4° C. and the temperature was lowered to −4° C. at 1° C. per minute, to −40° C. at 25° C. per minute, and then raised to −12° C. at 10° C. per minute. The temperature was again lowered to −40° C. at 1° C. per minute, to −90° C. at 10° C. per minute, and then lowered to −150° C. at 10° C. per minute. Once frozen, the vials containing the frond colonies were transferred to the vapor phase of liquid nitrogen for storage.
(§4) After up to 17 months in storage, the frozen duckweed frond colonies were thawed and recovered as follows. The vials containing the frozen duckweed frond colonies were transferred from the liquid nitrogen storage tank to a laminar flow hood and were thawed at room temperature for approximately ten minutes. The cryoprotective solution was removed and replaced with 900 μL of Schenk and Hildebrandt medium, supplemented with 1.2 M sucrose, followed by a ten minute incubation at room temperature. The 1.2 M sucrose was subsequently diluted by a series of five dilutions whereby 450 μL of the 1.2 M sucrose solution was removed and replaced with 450 μL of Schenk and Hildebrandt medium supplemented with 20 mg/ml sucrose. Following the serial dilutions, the frond colonies were transferred to a petri dish with Schenk and Hildebrandt medium, supplemented with 10 mg/ml sucrose and 1% (weight/volume) agar. The duckweed frond colonies were cultured at an aerial temperature of between 21° C. and 30° C. with light levels ranging from about 20 μM·M^−2·sec^−1 to about 100 μM·M^−2·sec^−1 for 7-14 days prior to calculating the success rate of the cryopreservation procedure.
(§5) The cryopreservation success rate was calculated by the total number of visible daughter fronds (or daughter fronds with viable tissue) to survive the freezing process and successfully reproduce new daughter fronds as a percentage of the total number of visible daughter fronds that were frozen. Viability of tissue or of daughter fronds was assessed by the presence of green tissue and the ability of these fronds or frond tissues to reproduce and generate new daughter fronds. […]

L. yungensis = format: in vivo, Lemna yungensis; conditions: for Cryopreservation success rate: single sugars 90 mg/ml unless the label says 20 mg/ml, six sugar combo 15 mg/ml each; for Cryopreservation success, number of surviving fronds: sugar 90 mg/ml; for Cryopreservation success, in words: summary of Tables 6 and 7
BAP01-B2-230 line = format: in vivo, Lemna minor; conditions: sugars at two concentrations: 90 mg/ml (1X) and 270 mg/ml (3X)
Protocol: (§6) Lemna minor duckweed plants were cultured on Schenk and Hildebrandt media with 20 mg/ml sucrose at an aerial temperature of between 21° C. and 30° C. and light levels ranging from […] for 1 day up to 1 year. Three frond colonies (each frond colony comprised one or more daughter fronds attached to the mother frond) were aseptically transferred into a 2.0-mL cryovial containing a 900 μL solution of Schenk and Hildebrandt media, supplemented with 15 mg/ml of each D-trehalose dihydrate, sucrose, D-sorbitol, D-raffinose pentahydrate, D-glucose, and D-mannitol for the dormancy-induction step. The frond colonies were incubated in this sugar solution for 21-30 days. Each 24-hour photoperiod was comprised of fluctuations in temperature and light levels. Specifically, the daytime hours consisted of culturing the duckweed frond colony at an aerial temperature of 10° C. with a light level of about 25 μM·M^−2·sec^−1 to about 50 μM·M^−2·sec^−1 for a duration of 3 hours, followed by an aerial temperature of 15° C. at a light level of about 25 μM·M^−2·sec^−1 to about 75 μM·M^−2·sec^−1 for a duration of 6 hours, and an aerial temperature of 10° C. with a light level of about 25 μM^−2·sec^−1 to about 50 μM·M^−2·sec^−1 for a duration of 3 hours. During the nighttime hours of the 24-hour photoperiod, the duckweed frond colonies were cultured at an aerial temperature of 4° C. in the absence of light for a duration of 12 hours.
as §2, §3, §4
(§7) The cryopreservation success rate was calculated by the total number of visible daughter fronds (or daughter fronds with viable tissue) to survive the freezing process and successfully reproduce new daughter fronds as a percentage of the total number of visible daughter fronds that were frozen. […]

L. minor [2] = format: in vivo, Lemna minor; conditions: for Cryopreservation success rate: single sugars 90 mg/ml unless the label says 20 mg/ml, six sugar combo 15 mg/ml each; for Cryopreservation success, in words: summary of Tables 6 and 7
Protocol: as §6, §2, §3, §4, §7

Sp. polyrrhiza = format: in vivo, Spirodela polyrrhiza; conditions: for Cryopreservation success rate: single sugars 90 mg/ml unless the label says 20 mg/ml, six sugar combo 15 mg/ml each; for Cryopreservation success, in words: summary of Tables 6 and 7
L. sp. Branson = format: in vivo; conditions: for Cryopreservation success, in words: summary of Tables 6 and 7
Protocol: as §1, §2, §3, §4, §5

[3] = first set of experiments, single sugars 90 mg/ml unless the label says 20 mg/ml, six sugar combo 15 mg/ml each, in Schenk and Hildebrandt media during dormancy induction
[4] = second set of experiments, single sugars 90 mg/ml unless the label says 20 mg/ml, six sugar combo 15 mg/ml each

SMILES	Cryopreservation success rate (L. yungensis; first set of experiments) [%]	Cryopreservation success rate (L. yungensis; second set of experiments) [%]	Cryopreservation success rate (L. minor [2]; first set of experiments)	Cryopreservation success rate (L. minor [2]; second set of experiments)	Cryopreservation success, in words (L. minor [2])	Cryopreservation success rate (Sp. polyrrhiza; first set of experiments)	Cryopreservation success rate (Sp. polyrrhiza; second set of experiments)	Cryopreservation success rate (L. sp. Branson; [3])	Cryopreservation success rate (L. sp. Branson; [4])	Cryopreservation success, number of surviving fronds (L. yungensis; first set of experiments) [frond]	Cryopreservation success, number of surviving fronds (L. yungensis; second set of experiments)	Cryopreservation success, in words (L. yungensis)	Cryopreservation success, in words (Sp. polyrrhiza)	Cryopreservation success, in words (L. sp. Branson)	other results
OC[C@H]1O[C@H](O[C@H]2O[C@H](CO)[C@@H](O)[C@H](O)[C@H]2O)[C@H](O)[C@@H](O)[C@@H]1O [Trehalose, trehalose]	0	0	100% (17/17)	85.7% (12/14)	prefers	0% (0/4)	0% (0/15)	100% (20/20)	100% (16/16)						Cryopreservation success rate (L. minor [1]; listed as Trehalose 1X): 100% (15/15); Cryopreservation success rate (L. minor [1]; listed as Trehalose 3X): 0% (0/12); Cryopreservation success rate (IFN61-B2-101 line; listed as Trehalose 1X): 93.8%; Cryopreservation success rate (IFN61-B2-101 line; listed as Trehalose 3X): 7.1%; Cryopreservation success rate (BAP01-B2-230 line; listed as Trehalose 1X): 85% (17/20); Cryopreservation success rate (BAP01-B2-230 line; listed as Trehalose 3X): 0% (0/12); Cryopreservation success rate (L. sp. Branson; sugars at two concentrations: 90 mg/ml (1X) and 270 mg/ml (3X), listed as Trehalose 1X): 100% (17/17); Cryopreservation success rate (L. sp. Branson; sugars at two concentrations: 90 mg/ml (1X) and 270 mg/ml (3X), listed as Trehalose 3X): 0% (0/17)
OC[C@H]1O[C@H](OC[C@H]2O[C@H](O[C@]3(CO)O[C@H](CO)[C@@H](O)[C@@H]3O)[C@H](O)[C@@H](O)[C@@H]2O)[C@H](O)[C@@H](O)[C@H]1O [Raffinose, raffinose]	0	0	100% (16/16)	92.9% (13/14)	prefers	0% (0/6)	0% (0/12)	100% (23/23)	100% (17/17)						Cryopreservation success rate (L. minor [1]; listed as Raffinose 1X): 96% (24/25); Cryopreservation success rate (L. minor [1]; listed as Raffinose 3X): 0% (0/19); Cryopreservation success rate (IFN61-B2-101 line; listed as Raffinose 1X): 100%; Cryopreservation success rate (IFN61-B2-101 line; listed as Raffinose 3X): 26.7%; Cryopreservation success rate (BAP01-B2-230 line; listed as Raffinose 1X): 96.2% (25/26); Cryopreservation success rate (BAP01-B2-230 line; listed as Raffinose 3X): 0% (0/14); Cryopreservation success rate (L. sp. Branson; sugars at two concentrations: 90 mg/ml (1X) and 270 mg/ml (3X), listed as Raffinose 1X): 100% (20/20); Cryopreservation success rate (L. sp. Branson; sugars at two concentrations: 90 mg/ml (1X) and 270 mg/ml (3X), listed as Raffinose 3X): 0% (0/12)
O=C[C@H](O)[C@@H](O)[C@H](O)[C@H](O)CO [Glucose, glucose]	0	0	5.9% (1/17)	53.9% (7/13)	lower cryopreservation success rates	0% (0/4)	0% (0/4)	88.5% (23/26)	53.3% (8/15)						Cryopreservation success rate (L. minor [1]; listed as Glucose 1X): 0% (0/12); Cryopreservation success rate (L. minor [1]; listed as Glucose 3X): 0% (0/16); Cryopreservation success rate (IFN61-B2-101 line; listed as Glucose 1X): 5.3%; Cryopreservation success rate (IFN61-B2-101 line; listed as Glucose 3X): 0%; Cryopreservation success rate (BAP01-B2-230 line; listed as Glucose 1X): 0% (0/14); Cryopreservation success rate (BAP01-B2-230 line; listed as Glucose 3X): 0% (0/13); Cryopreservation success rate (L. sp. Branson; sugars at two concentrations: 90 mg/ml (1X) and 270 mg/ml (3X), listed as Glucose 1X): 0% (0/11); Cryopreservation success rate (L. sp. Branson; sugars at two concentrations: 90 mg/ml (1X) and 270 mg/ml (3X), listed as Glucose 3X): 0% (0/15)
OC[C@@H](O)[C@@H](O)[C@H](O)[C@H](O)CO [Mannitol, mannitol]			0% (0/8)	0% (0/14)	ineffective	50% (4/8)	57.1% (4/7)	33.3% (6/18)	28.6% (4/14)	1	2 fronds	successfully cryopreserved	successfully cryopreserved	low relative to the other sugars that were tested	
OC[C@@H](O)[C@@H](O)[C@H](O)[C@@H](O)CO [Sorbitol, sorbitol]			0% (0/13)	0% (0/4)	ineffective	12.5% (1/8)	25% (1/4)	27.3% (6/22)	16.7% (2/12)	1	1 frond	successfully cryopreserved	successfully cryopreserved	low relative to the other sugars that were tested	
